Measured values published in publication PMC9887599, “Synthesis, Optical Properties, and Antiproliferative Evaluation of NBD-Triterpene Fluorescent Probes” (Journal of Natural Products, 2022).

How the values were obtained:
[1] = Cell-viability percentages in nontumor cells, summary; type: cell-based; conditions: human, rat; in most cases
Experimental: (§1) Due to their greater cytotoxic activity, NBD conjugates 1 and 2 were selected to analyze their cytotoxic effects on healthy cells, using nontumor cell lines (HPF human pulmonary fibroblasts, IEC-18 epithelial rat ileum cells, and WRL68 human embryonic hepatic cells) (Table 3). The selectivity indices (SI) of the NBD-Aa-triterpene conjugates 1 and 2 were calculated with the formula: IC50 nontumor cells/IC50 cancer cells. Additionally, cell-viability percentages in the nontumor cells were measured, which ranged in most cases between 75 and 90%.
The effect of the synthesized compounds on the viability of tumor cells was assessed using the MTT assay, based on the ability of living cells to metabolically reduce 3-(4,5-dimethylthiazole)-2,5-diphenyltetrazole bromide, rendering formazan, a colored compound with a maximum absorbance of 570 nm. To study the cytotoxic effects of the compounds in the three cancer cell lines, the different lines were seeded in 96-well plates at a cell density per well of 5 × 10^3 for B16-F10, 6 × 10^3 for HT-29, and 15 × 10^3 for HepG2. After seeding, the plates were grown for 24 h and subsequently treated in triplicate with different compounds at different concentrations (0–200 μg/mL) for 72 h. […] Cell viability was measured by absorbance at 550 nm in an ELISA plate reader (Tecan Sunrise MR20–301, TECAN, Austria).

[2] = system: HT-29 human colon adenocarcinoma; assay: MTT cell-viability assay, HT-29; type: cell-based; conditions: 72 h, untreated control cells as 100% viability
Experimental: (§2) The cytotoxic effects of 12 NBD-Aa-triterpene conjugates (1–12) were tested on three different cancer cell lines as a representation of cancers from different tissues and organs (B16-F10 murine melanoma, HT-29 human colon adenocarcinoma, and HepG2 human hepatocyte carcinoma). Cell viability was determined by MTT colorimetric analysis, with increasing concentration levels of each compound (0–200 μg/mL) and incubation for 72 h. The MTT assay was based on the metabolic reduction of 3-(4,5-dimethylthiazol-2-yl)-2,5-diphenyltetrazolium bromide (MTT) to a violet-colored compound (formazan), with a maximum absorbance at 570 nm. Cell viability was proportional to the amount of formazan and was expressed as the percentage of viable treated cells relative to untreated control cells. The concentration at which the derivatives halved the number of viable cells in the three cancer lines (IC50) was determined. […] These NBD conjugates of BO or BM also had higher IC50 values than their precursors (BO or BM), even in NBD conjugates with the shortest-chain ω-amino acid linker (6AHA) (Table 2). Due to these high IC50 values, all of these NBD-conjugated compounds were discarded for further cytometric studies.
(§3) The effect of the synthesized compounds on the viability of tumor cells was assessed using the MTT assay, based on the ability of living cells to metabolically reduce 3-(4,5-dimethylthiazole)-2,5-diphenyltetrazole bromide, rendering formazan, a colored compound with a maximum absorbance of 570 nm. To study the cytotoxic effects of the compounds in the three cancer cell lines, the different lines were seeded in 96-well plates at a cell density per well of 5 × 10^3 for B16-F10, 6 × 10^3 for HT-29, and 15 × 10^3 for HepG2. After seeding, the plates were grown for 24 h and subsequently treated in triplicate with different compounds at different concentrations (0–200 μg/mL) for 72 h. After this time, the cells were stained by adding […] of MTT (0.5 mg/mL) per well and incubated for 1 h. Subsequently, the cells were washed with phosphate-buffered saline (PBS), and formazan was resuspended in 100 μL of DMSO per well. Cell viability was measured by absorbance at 550 nm in an ELISA plate reader (Tecan Sunrise MR20–301, TECAN, Austria).
(§4) For this, Sigmaplot 12.5 software was used, and all quantitative data were expressed as means ± standard deviation (SD). All data shown are representative of at least two independent experiments performed in triplicate.

[3] = system: B16-F10 murine melanoma; assay: MTT cell-viability assay, B16-F10; type: cell-based; conditions: Mus musculus, 72 h, untreated control cells as 100% viability
Experimental: as §2, §3, §4

[4] = Absorption and fluorescence spectroscopy (photophysical data); type: physicochemical; conditions: DMSO, 25 °C; for τ (half-life time of fluorescence): 485 nm pulsed LED; for Φ (fluorescence quantum yield): Coumarin 6 as standard; for (λem)max: excitation at 480 nm
[5] = system: HPF human pulmonary fibroblasts; assay: MTT cytotoxicity on nontumor cells, HPF; type: cell-based; conditions: for IC50: Homo sapiens, Pulmonary fibroblast, MTT assay, nontumor cells; for SI (selectivity index, IC50 nontumor cells/IC50 cancer cells), HPF: column beside HPF
Experimental: as §1, §3, §4

[6] = system: WRL68 human embryonic hepatic cells; assay: MTT cytotoxicity on nontumor cells, WRL68; type: cell-based; conditions: for IC50: Homo sapiens, WRL68, MTT assay, nontumor cells; for SI (selectivity index, IC50 nontumor cells/IC50 cancer cells), WRL68: column beside WRL68
Experimental: as §1, §3, §4

[7] = system: IEC-18 epithelial rat ileum cells; assay: MTT cytotoxicity on nontumor cells, IEC-18; type: cell-based; conditions: for IC50: Rattus norvegicus, IEC-18, MTT assay, nontumor cells; for SI (selectivity index, IC50 nontumor cells/IC50 cancer cells), IEC-18: column beside IEC-18
Experimental: as §1, §3, §4

[8] = system: HepG2 human hepatocyte carcinoma; assay: MTT cell-viability assay, HepG2; type: cell-based; conditions: 72 h, untreated control cells as 100% viability
Experimental: as §2, §3, §4

[9] = system: HepG2 cells; assay: Annexin V/propidium iodide flow cytometry of cell death, HepG2; type: cell-based, human; conditions: HepG2, at IC50 concentration, after 72 h
Experimental: (§5) NBD-6AHA-triterpene conjugates 1 and 2 were selected for the characterization of their cytotoxic effects on the three cancer cell lines used. The percentages of cell death were determined using the concentrations corresponding to the IC50 values for each compound in the three cancer cell lines (B16-F10, HT-29, and HepG2). This study was conducted by flow cytometry, using double staining with DY634 annexin V/propidium iodide, which allows the identification and quantification of intact, apoptotic, or necrotic cells. Annexin DY634 (red fluorescence) is an apoptotic marker due to its ability to bind to phosphatidylserine exposed on the external cell surface. Propidium iodide (orange fluorescence) is a DNA marker that is capable of penetrating only when the cell is damaged, differentiating late apoptotic or necrotic cells from apoptotic ones. These conjugates (1 and 2) are green fluorescent probes, not causing interference in the fluorescence.
(§6) The apoptosis studies were conducted at 4, 24, and 72 h (Figure 5).
(§7) Cell death (apoptosis) was studied by flow cytometry using a FACScan (fluorescence-activated cell sorter) flow cytometer (Coulter Corporation, Hialeah, FL). […] In each experiment, approximately 10 × 10^3 cells were analyzed, and the experiment was duplicated twice.

[10] = system: HT-29 cells; assay: Annexin V/propidium iodide flow cytometry of cell death, HT-29; type: cell-based, human; conditions: HT-29, at IC50 concentration, after 72 h
Experimental: as §5, §6, §7

[11] = system: B16-F10 cells; assay: Annexin V/propidium iodide flow cytometry of cell death, B16-F10; type: cell-based, mouse; conditions: B16-F10, at IC50 concentration, after 72 h
Experimental: as §5, §6, §7

[12] = system: B16-F10, HT-29, and HepG2; assay: MTT cell-viability assay, summary over the three cancer cell lines; type: cell-based, mouse, human; conditions: 72 h, stated as holding in most cases, read-out: IC50 concentrations over the three cancer cell lines, in most cases
Experimental: as §2, §3, §4

[13] = parameters: method as in PMID 26512635; conditions: ethanol solution ref 45; cited from earlier work

Compound | viability at 72 h [1] | IC50 [2] | IC50 [3] | ε (molar extinction coefficient) [4] | τ (half-life time of fluorescence) [4] | Φ (fluorescence quantum yield) [4] | (λem)max [4] | IC50 [5] | SI (selectivity index, IC50 nontumor cells/IC50 cancer cells), HPF [5] | IC50 [6] | SI (selectivity index, IC50 nontumor cells/IC50 cancer cells), WRL68 [6] | IC50 [7] | SI (selectivity index, IC50 nontumor cells/IC50 cancer cells), IEC-18 [7] | IC50 [8] | percentage of apoptosis [9] | percentage of apoptosis [10] | (λabs)max [4] | percentage of apoptosis [11] | IC50 [12] | ΦF of the standard sample [13]
CC1(C)CC[C@]2(C(=O)O)CC[C@]3(C)C(=CC[C@@H]4[C@@]5(C)CC[C@H](OC(=O)CCCCCNc6ccc([N+](=O)[O-])c7nonc67)C(C)(C)[C@@H]5CC[C@]43C)[C@@H]2C1 [Compound 1, 3β-((6-((7-Nitrobenzo[c][1,2,5]oxadiazol-4-yl)amino)hexanoyl)oxy)olean-12-en-28-oic Acid] | 75 to 90% | 19.5 ± 0.1 µM | 2.4 ± 0.1 µM | 2539 M^–1 cm^–1 | 7.712 ns | 0.76 | 546 nm | 39.7 ± 1.2 µM | 17 | 37.9 ± 0.2 µM | 3 | 41 ± 0.3 µM | 2 | 12.5 ± 0.1 µM |  |  |  |  |  | 
CC1(C)CC[C@]2(C(=O)O)CC[C@]3(C)C(=CC[C@@H]4[C@@]5(C)C[C@@H](OC(=O)CCCCCNc6ccc([N+](=O)[O-])c7nonc67)[C@H](O)C(C)(C)[C@@H]5CC[C@]43C)[C@@H]2C1 [Compound 2, 3β-Hydroxy-2α-((6-((7-nitrobenzo[c][1,2,5]oxadiazol-4-yl)amino)hexanoyl)oxy)olean-12-en-28-oic Acid] | 75 to 90% | 6.6 ± 0.1 µM | 4.9 ± 0.4 µM | 3166 M^–1 cm^–1 | 7.681 ns | 0.71 | 546 nm | 14.8 ± 1.5 µM | 3 | 10 ± 0.3 µM | 1 | 14.7 ± 0.7 µM | 2 | 13.9 ± 0.6 µM | 53% | 55% | 480 nm | 48% |  | 
CC1(C)CC[C@]2(C(=O)OCc3ccccc3)CC[C@]3(C)C(=CC[C@@H]4[C@@]5(C)C[C@@H](OC(=O)CCCCCCCCCCNc6ccc([N+](=O)[O-])c7nonc67)[C@H](O)C(C)(C)[C@@H]5CC[C@]43C)[C@@H]2C1 [Compound 12] |  | 108 ± 3.8 µM | 80.8 ± 0.9 µM | 2710 M^–1 cm^–1 | 7.633 ns | 0.46 | 546 nm |  |  |  |  |  |  | 80.9 ± 1.1 µM |  |  | 480 nm |  | > 80 µM | 
CCN(CC)c1ccc2cc(-c3nc4ccccc4s3)c(=O)oc2c1 [Coumarin 6] |  |  |  |  |  |  |  |  |  |  |  |  |  |  |  |  |  |  |  | 0.78
